# From publication PMC5905120, “An innovative immunotherapeutic strategy for ovarian cancer: CLEC10A and glycomimetic peptides” (Journal for Immunotherapy of Cancer, 2018)
# Bridges are numbered along the chain shown (N, C = ends). Roman numbers before positions name the chains, in order. Where no end group is shown, it is not given here.
# Key:
# [1] = tested on: TREG cells within melanoma tumors; assay: TREG cells in tumors of melanoma-bearing mice; type: in vivo, mouse; conditions: preliminary (data not shown)
# Siglec-1 = assay: Solid-phase binding to Siglec-1; set-up: species or system human; conditions: Fig. 2b
# Procedure: Solid-phase binding assays were performed with streptavidin-, protein A/G-, or Nickel-coated microtiter plates (Pierce). His-tagged or Fc-fusion recombinant receptors (R&D Systems, Minneapolis, MN) were reconstituted in PBS. Sufficient receptors were added to wells to saturate the coating. His-tagged receptors were added to each well at a 5-fold excess over the stated capacity of the Ni coating to minimize non-specific binding of the peptide. Wells were washed three times with binding buffer (25 mM Tris HCl, pH 7.4, 150 mM NaCl, 0.05% Tween-20) to remove unbound receptor and 50 μL of 2 μM biotinylated peptide in binding buffer were added and allowed to incubate for 1 h. The wells were washed four times with binding buffer and then incubated with 50 μL of 1 μg/mL streptavidin conjugated with peroxidase (Sigma-Aldrich) for 1 h. […] After several minutes to allow color development, the reaction was stopped with 50 μL 1 M H3PO4 and absorbance was measured at 450 nm. Bound streptavidin was quantitated by the specific activity of peroxidase (absorbance/ng protein conjugate/min) under the conditions of the assay.
# Solid-phase binding assays were performed with recombinant human receptors. […] After extensive washing, the bound receptor was measured by peroxidase conjugated to a receptor-specific antibody. […]
# [2] = tested on: monocytes in the peritoneal cavity of RAG^—/— mice; assay: Peritoneal monocyte response in RAG^—/— mice; type: in vivo, mouse (RAG^—/—); conditions: s.c. injection (data not shown)
# Procedure: To determine whether the target(s) for svL4 is located on lymphocytes, with subsequent cross-talk signaling to achieve activation of monocytes, an experiment was performed in which svL4 was injected into RAG^—/— mice, which lack activity of rag, the recombination activation gene. The ability to perform recombination to generate antigen-specific antibodies by V(D)J recombination is required for B and T cell precursors to produce functional antigen receptors on their surface, and without a functional rag gene these cells undergo apoptosis.
# human CLEC10A = target: T1, human CLEC10A (Homo sapiens, UniProt Q8IUN9); assay: Solid-phase binding to recombinant human CLEC10A; conditions: Fig. 2a, representative of 3 independent experiments
# T1 construct: purchased R&D Systems
# T1 sequence (Q8IUN9 61-316 limits assumed): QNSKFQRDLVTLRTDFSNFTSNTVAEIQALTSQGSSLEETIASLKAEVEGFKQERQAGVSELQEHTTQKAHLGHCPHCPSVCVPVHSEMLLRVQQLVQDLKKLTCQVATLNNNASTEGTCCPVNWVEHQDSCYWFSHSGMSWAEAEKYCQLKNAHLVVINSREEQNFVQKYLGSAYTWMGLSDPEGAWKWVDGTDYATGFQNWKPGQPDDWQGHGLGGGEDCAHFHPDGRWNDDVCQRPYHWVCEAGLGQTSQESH
# Procedure: Solid-phase binding assays were performed with streptavidin-, protein A/G-, or Nickel-coated microtiter plates (Pierce). His-tagged or Fc-fusion recombinant receptors (R&D Systems, Minneapolis, MN) were reconstituted in PBS. Sufficient receptors were added to wells to saturate the coating. His-tagged receptors were added to each well at a 5-fold excess over the stated capacity of the Ni coating to minimize non-specific binding of the peptide. Wells were washed three times with binding buffer (25 mM Tris HCl, pH 7.4, 150 mM NaCl, 0.05% Tween-20) to remove unbound receptor and 50 μL of 2 μM biotinylated peptide in binding buffer were added and allowed to incubate for 1 h. The wells were washed four times with binding buffer and then incubated with 50 μL of 1 μg/mL streptavidin conjugated with peroxidase (Sigma-Aldrich) for 1 h. The wells were washed five times with binding buffer and 50 μL of peroxidase substrate (1-Step™ Ultra TMB, Pierce) were added. After several minutes to allow color development, the reaction was stopped with 50 μL 1 M H3PO4 and absorbance was measured at 450 nm. Bound streptavidin was quantitated by the specific activity of peroxidase (absorbance/ng protein conjugate/min) under the conditions of the assay.
# Solid-phase binding assays were performed with recombinant human receptors. Three variations of the binding assay were used in this study, all of which allowed the arms of the tetravalent peptide to have full flexibility. (i) Biotinylated peptide was bound in microtiter wells coated with streptavidin and incubated with recombinant human receptors. After extensive washing, the bound receptor was measured by peroxidase conjugated to a receptor-specific antibody. (ii) The extracellular domains of receptors, which were fused with the Fc domain of immunoglobulin IgG, were bound in wells coated with protein A/G. Biotinylated peptide was incubated with the receptors and, after extensive washing, bound peptide was measured with streptavidin conjugated with peroxidase. Or (iii), recombinant receptors with a poly-His tag were bound to Nickel-coated wells and incubated with biotinylated peptide. svL4 and sv6D contain His residues (see Table 1) and can bind to the Ni coating, which was minimized by adding sufficient poly-His-tagged receptor to saturate the Ni coating.
# brain glioma = conditions: in combination with brief radiation; ref [48]; cited from earlier work
# Text: We asked whether the collective evidence of the role of ligands of CLEC10A, such as promoting DC maturation, T cell activation, and initiation of an immune response would coalesce into an effective anti-cancer therapy. To achieve this goal, the ligand should serve as a ‘trigger’ to initiate a cascade of events that will lead to activation of the immune system. Given that natural ligands of CLEC10A that contain GalNAc bind with low affinity and are antigenic, we considered whether a multivalent peptide mimetic of GalNAc would serve this purpose. We previously described ef ...
# [3] = Antigenicity assay in mouse sera; type: in vivo; conditions: 1 nmole/g s.c., alternate days for 3 months; sera of 8 treated mice, Fig. 8
# Procedure: The sequence of one arm of svL4 or sv6D was conjugated to keyhole limpet hemocyanin (KLH) and injected into rabbits at two week intervals (total of 3 injections) (New England Peptide, Inc., Gardner, MA). Two weeks after the final injection, sera were prepared. Mice were injected with a peptide every other day over a period of 3 months (total ~ 45 injections), blood was then collected by cardiac puncture and sera were prepared. Rabbit serum was diluted 1:10, whereas mouse serum was diluted 1:1 or 1:5 with PBS containing 0.05% Tween-20 (PBST). Sera were incubated in microtiter wells coated with protein A/G (Pierce) for 90 min. The wells were washed three times with PBST, and then incubated with 50 μL of 1 μM biotinylated svL4 or sv6D for 1 h. The wells were washed four times with PBST, incubated 1 h with 1 μg/mL streptavidin-peroxidase conjugate, and washed four times with PBST. Peroxidase activity was assayed as above under Binding Assays.
# Fig. 8 Test for antigenicity of svL4 and sv6D. Anti-sera were generated in rabbits against KLH-conjugates of the sequences of svL4 or sv6D and diluted 1:10. Mouse sera were collected after alternate-day injections of svL4 over 3 months, diluted 1:1 with PBS and added to protein-A/G-coated wells. Biotinylated svL4 or sv6D was added to wells and bound peptide was detected with a streptavidin-peroxidase conjugate. […]
substance,measurement,setting,value
"I: VQATQSNQHTPRGGGSKK-NH2 / II: VQATQSNQHTPRGGGSK / III: VQATQSNQHTPRGGGS / IV: VQATQSNQHTPRGGGS (amide I:17-IV:C, I:18-II:C, II:17-III:C) [svL4]",TREG cells within tumors,[1],dramatic reduction in TREG cells
same,binding to Siglec-1,Siglec-1,did not bind significantly
same,response of peritoneal monocytes vs. C57BL/6,[2],essentially the same as that in C57BL/6 mice
same,binding to CLEC10A,human CLEC10A,bound to CLEC10A
same,efficacy in murine brain glioma model,brain glioma,efficacy
same,antibodies that bind the peptides in mouse sera,[3],negative
